According to ChEMBL document CHEMBL4387741, “Optimization of novel reversible Bruton's tyrosine kinase inhibitors identified using Tethering-fragment-based screens” (Bioorg Med Chem, 2019):

How the values were obtained:
[1] = target: Serine/threonine-protein kinase MRCK gamma (Homo sapiens) (UniProt Q6DT37); assay: Inhibition of wild-type human partial length DMPK2 (S46 to S408 residues) expressed in bacterial expression system at 1 uM by Kinomescan method relative to control
[2] = target: Mitogen-activated protein kinase kinase kinase kinase 3 (Homo sapiens) (UniProt Q8IVH8); assay: Inhibition of wild-type human partial length MAP4K3 (M1 to D301 residues) expressed in bacterial expression system at 1 uM by Kinomescan method relative to control
[3] = target: Cyclin-dependent kinase 15 (Homo sapiens) (UniProt Q96Q40); assay: Inhibition of wild-type human full length PFTAIRE2 (M1 to W384 residues) expressed in bacterial expression system at 1 uM by Kinomescan method relative to control
[4] = target: Serine/threonine-protein kinase pim-1 (Homo sapiens) (UniProt P11309); assay: Inhibition of wild-type human partial length PIM1 (A15 to K313 residues) expressed in bacterial expression system at 1 uM by Kinomescan method relative to control
[5] = target: Serine/threonine-protein kinase Sgk2 (Homo sapiens) (UniProt Q9HBY8); assay: Inhibition of wild-type human partial length SGK2 (L54 to C427 residues) expressed in mammalian expression system at 1 uM by Kinomescan method relative to control
[6] = target: Death-associated protein kinase 2 (Homo sapiens) (UniProt Q9UIK4); assay: Inhibition of wild-type human full length DAPK2 (M1 to S370 residues) expressed in bacterial expression system at 1 uM by Kinomescan method relative to control
[7] = target: Fibroblast growth factor receptor 1 (Homo sapiens) (UniProt P11362); assay: Inhibition of wild-type human partial length FGFR1 (P357 to V669 residues) expressed in bacterial expression system at 1 uM by Kinomescan method relative to control
[8] = tested on: Hepatocyte growth factor receptor (Homo sapiens), P08581 [Y1235D]; assay: Inhibition of human partial length MET Y1235D mutant (D1010 to S1367 residues) expressed in bacterial expression system at 1 uM by Kinomescan method relative to control
[9] = target: Phosphatidylinositol 4,5-bisphosphate 3-kinase catalytic subunit beta isoform (Homo sapiens) (UniProt P42338); assay: Inhibition of wild-type human partial length PIK3CB (P118 to S1070 residues) expressed in mammalian expression system at 1 uM by Kinomescan method relative to control
[10] = tested on: Mast/stem cell growth factor receptor Kit (Homo sapiens), P10721 [L576P]; assay: Inhibition of human partial length KIT L576P mutant (Y545 to D952 residues) expressed in bacterial expression system at 1 uM by Kinomescan method relative to control
[11] = target: Mitogen-activated protein kinase 15 (Homo sapiens) (UniProt Q8TD08); assay: Inhibition of wild-type human partial length ERK8 (M1 to P437 residues) expressed in bacterial expression system at 1 uM by Kinomescan method relative to control
[12] = target: Death-associated protein kinase 3 (Homo sapiens) (UniProt O43293); assay: Inhibition of wild-type human partial length DAPK3 (M1 to A277 residues) expressed in bacterial expression system at 1 uM by Kinomescan method relative to control
[13] = target: Dual specificity mitogen-activated protein kinase kinase 2 (Homo sapiens) (UniProt P36507); assay: Inhibition of wild-type human full length MEK2 (M1 to V400 residues) expressed in mammalian expression system at 1 uM by Kinomescan method relative to control
[14] = target: Phosphatidylinositol 3-kinase catalytic subunit type 3 (Homo sapiens) (UniProt Q8NEB9); assay: Inhibition of wild-type human partial length VPS34 (S282 to H879 residues) expressed in mammalian expression system at 1 uM by Kinomescan method relative to control
[15] = target: Serine/threonine-protein kinase PAK 2 (Homo sapiens) (UniProt Q13177); assay: Inhibition of wild-type human partial length PAK2 (P151 to R525 residues) expressed in bacterial expression system at 1 uM by Kinomescan method relative to control
[16] = target: Mitogen-activated protein kinase kinase kinase 6 (Homo sapiens) (UniProt O95382); assay: Inhibition of wild-type human partial length ASK2 (M278 to R972 residues) expressed in mammalian expression system at 10 uM by Kinomescan method relative to control
[17] = target: Homeodomain-interacting protein kinase 3 (Homo sapiens) (UniProt Q9H422); assay: Inhibition of wild-type human partial length HIPK3 (M153 to N562 residues) expressed in mammalian expression system at 10 uM by Kinomescan method relative to control
[18] = target: Cyclin-dependent kinase 4/cyclin D1 (Homo sapiens) (UniProt P11802+P24385); assay: Inhibition of wild-type human full length CDK4/cyclinD1 (M1 to E303 residues) expressed in mammalian expression system at 10 uM by Kinomescan method relative to control
[19] = target: Ephrin type-A receptor 8 (Homo sapiens) (UniProt P29322); assay: Inhibition of wild-type human partial length EPHA8 (Q608 to C920 residues) expressed in bacterial expression system at 10 uM by Kinomescan method relative to control
[20] = target: Ribosomal protein S6 kinase alpha-5 (Homo sapiens) (UniProt O75582); assay: Inhibition of wild-type human partial length N-terminal RPS6KA5 kinase domain 1 expressed in bacterial expression system at 10 uM by Kinomescan method relative to control
[21] = target: Serine/threonine-protein kinase MARK1 (Homo sapiens) (UniProt Q9P0L2); assay: Inhibition of wild-type human partial length MARK1 (Q30 to T341 residues) expressed in bacterial expression system at 10 uM by Kinomescan method relative to control
[22] = target: Serine/threonine-protein kinase TAO1 (Homo sapiens) (UniProt Q7L7X3); assay: Inhibition of wild-type human partial length TAOK1 (M1 to A320 residues) expressed in mammalian expression system at 10 uM by Kinomescan method relative to control
[23] = target: Non-receptor tyrosine-protein kinase TYK2 (Homo sapiens) (UniProt P29597); assay: Inhibition of wild-type human partial length TYK2 JH1 catalytic domain (V877 to C1187 residues) expressed in mammalian expression system at 10 uM by Kinomescan method relative to control
[24] = target: Mitogen-activated protein kinase kinase kinase kinase 3 (Homo sapiens) (UniProt Q8IVH8); assay: Inhibition of wild-type human partial length MAP4K3 (M1 to D301 residues) expressed in bacterial expression system at 10 uM by Kinomescan method relative to control
[25] = target: Phosphatidylinositol 4,5-bisphosphate 3-kinase catalytic subunit delta isoform (Homo sapiens) (UniProt O00329); assay: Inhibition of wild-type human partial length PIK3CD (R108 to Q1044 residues) expressed in mammalian expression system at 10 uM by Kinomescan method relative to control
[26] = tested on: Phosphatidylinositol 4,5-bisphosphate 3-kinase catalytic subunit alpha isoform (Homo sapiens), P42336 [I800L]; assay: Inhibition of human partial length PIK3CA I800L mutant (R108 to N1068 residues) expressed in mammalian expression system at 10 uM by Kinomescan method relative to control
[27] = tested on: Serine/threonine-protein kinase B-raf (Homo sapiens), P15056 [V600E]; assay: Inhibition of human partial length BRAF V600E mutant (S429 to E741 residues) expressed in mammalian expression system at 10 uM by Kinomescan method relative to control

**Q.** Which results are given for `O=C(Nc1cccc([C@@H]2CN(c3ncnc4[nH]ccc34)CCN2CCO)c1)Nc1c(F)cccc1N1CCCC1`?
**A.** inhibition [1]: 100%; inhibition [2]: 71%; inhibition [3]: 91%; inhibition [4]: 86%; inhibition [5]: 63%; inhibition [6]: 6.1%; inhibition [7]: 46%; inhibition [8]: 67%; inhibition [9]: 100%; inhibition [10]: 35%; inhibition [11]: 81%; inhibition [12]: 5.2%; inhibition [13]: 73%; inhibition [14]: 100%; inhibition [15]: 87%

**Q.** With `O=C(Nc1cccc([C@H]2CCCN(c3ncnc4[nH]ccc34)C2)c1)Nc1ccccc1N1CCCC1` as the molecule, how does the inhibition [16] read?
**A.** 73%

**Q.** What about the inhibition [17] of the same molecule?
**A.** 47%

**Q.** And the inhibition [18]?
**A.** 74%

**Q.** And the inhibition [19]?
**A.** 40%

**Q.** What about the inhibition [20] of the same molecule?
**A.** 100%

**Q.** And the inhibition [21]?
**A.** 81%

**Q.** What about the inhibition [22] of the same molecule?
**A.** 62%

**Q.** What about the inhibition [23] of the same molecule?
**A.** 0.6%

**Q.** What about the inhibition [24] of the same molecule?
**A.** 47%

**Q.** What about the inhibition [25] of the same molecule?
**A.** 99%

**Q.** What about the inhibition [26] of the same molecule?
**A.** 34%

**Q.** What about the inhibition [27] of the same molecule?
**A.** 16%
